Laboratory results: US8084484B2, “Vanilloid receptor ligands, pharmaceutical compositions containing them, process for making them, and use thereof for treating pain and other conditions” (Gruenenthal GmbH, priority 2007, dated 2011)

How the values were obtained:
[1] = target: T1, vanilloid receptor (VR1), human VR1 gene (Homo sapiens, UniProt Q8NER1); experiment: FLIPR Ca2+ influx assay on CHO K1 cells transfected with the VR1 gene, capsaicin stimulus (Pharmacological method II); format: cell-based; conditions: for Ki / Ki (human) Capsaicin: human, Ki by Cheng-Prusoff, ne = no effect, no response observed; for inhibition at 5 µM: CHO-K1, compound 5 μM, read-out: Capsaicin: inhibition (in percent) @ 5 μM; for inhibition at 5 µM / inhibition at 0.1 µM: species column unclear (taken as human); for inhibition at 0.1 µM: CHO-K1, compound 0.1 μM, read-out: Capsaicin: inhibition (in percent) @ 0.1 μM
T1 construct: expressed in transfected cells; host or cells: CHO K1 cells (ECACC), stably transfected
T1 sequence (Q8NER1 whole entry): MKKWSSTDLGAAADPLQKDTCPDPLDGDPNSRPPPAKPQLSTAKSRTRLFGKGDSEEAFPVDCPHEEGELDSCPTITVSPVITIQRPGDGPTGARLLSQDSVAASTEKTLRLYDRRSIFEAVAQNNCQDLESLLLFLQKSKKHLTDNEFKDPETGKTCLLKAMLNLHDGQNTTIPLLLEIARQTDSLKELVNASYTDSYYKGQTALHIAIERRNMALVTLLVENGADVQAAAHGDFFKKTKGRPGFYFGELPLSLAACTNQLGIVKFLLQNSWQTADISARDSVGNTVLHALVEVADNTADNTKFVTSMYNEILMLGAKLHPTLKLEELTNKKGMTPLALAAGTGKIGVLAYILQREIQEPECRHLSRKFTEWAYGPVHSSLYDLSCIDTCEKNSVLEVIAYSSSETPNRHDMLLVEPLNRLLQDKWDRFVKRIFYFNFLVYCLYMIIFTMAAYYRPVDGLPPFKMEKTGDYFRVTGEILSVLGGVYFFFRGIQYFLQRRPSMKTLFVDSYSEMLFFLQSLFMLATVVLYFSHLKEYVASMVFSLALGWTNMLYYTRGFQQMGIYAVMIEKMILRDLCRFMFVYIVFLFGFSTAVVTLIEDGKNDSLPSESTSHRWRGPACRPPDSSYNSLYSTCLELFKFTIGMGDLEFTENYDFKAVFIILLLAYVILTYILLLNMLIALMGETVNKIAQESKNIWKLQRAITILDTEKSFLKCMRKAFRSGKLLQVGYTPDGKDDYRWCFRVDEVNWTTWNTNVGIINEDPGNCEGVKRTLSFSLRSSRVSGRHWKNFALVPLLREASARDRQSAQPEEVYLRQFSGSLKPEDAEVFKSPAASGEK
Protocol: In addition, compounds according to the invention of the general formulae I, Ia, Ib, Ic, and Id, may be preferred which in the FLIPR assay with CHO K1 cells, which have been transfected with the human VR1 gene, in a concentration of less than 2000 nM, preferably of less than 1000 nM, particularly preferably of less than 300 nM, very particularly preferably of less than 100 nM, still more preferably of less than 75 nM, further preferably of less than 50 nM and most preferably of less than 10 nM, bring about a 50 percent displacement of capsaicin, which is present in a concentration of 100 nM. In this FLIPR assay, the influx of Ca^2+ is quantified with the assistance of a Ca^2+-sensitive dye (type Fluo-4, Molecular Probes Europe BV, Leiden, Netherlands) in a Fluorescent Imaging Plate Reader (FLIPR, Molecular Devices, Sunnyvale, USA) as described below.
II. Functional Investigations on Vanilloid Receptor (VR1)
The agonistic or antagonistic action of the substances to be investigated on the vanilloid receptor (VR1) may also be determined with the following assay. According to this assay, the influx of Ca^2+ through the channel is quantified with the assistance of a Ca^2+-sensitive dye (type Fluo-4, Molecular Probes Europe BV, Leiden, Netherlands) in a Fluorescent Imaging Plate Reader (FLIPR, Molecular Devices, Sunnyvale, USA).
Chinese hamster ovary cells (CHO K1 cells, European Collection of Cell Cultures (ECACC), Great Britain) are stably transfected with the VR1 gene. For functional investigations, these cells are plated out onto poly-D-lysine-coated, black 96-hole plates with a clear base (BD Biosciences, Heidelberg, Germany) at a density of 25,000 cells/hole. The cells are incubated overnight at 37° C. and 5% CO2 in a culture medium (Ham's Nutrient Mixture F12, 10 vol. % FCS (foetal calf serum), 18 μg/mL L-proline). On the following day, the cells are incubated with Fluo-4 (Fluo-4 2 μM, Pluronic F127 0.01 vol. %, Molecular Probes in HBSS (Hank's buffered saline solution), Gibco Invitrogen GmbH, Karlsruhe, Germany) for 30 minutes at 37° C. The plates are then washed 3 times with HBSS buffer and, after a further 15 minutes' incubation at room temperature, used for Ca^2+ measurement in the FLIPR. Ca^2+-dependent fluorescence is here measured before and after the addition of the substances to be investigated (wavelength λex=488 nm, λem=540 nm).
Quantification proceeds by measuring the highest fluorescence intensity (FC, fluorescence counts) over time.
The FLIPR protocol consists of 2 additions of substance. The substances to be tested (10 μM) are firstly pipetted onto the cells and Ca^2+ influx is compared with the control (capsaicin 10 μM) (% activation relative to the Ca^2+ signal after addition of 10 μM of capsaicin). After 5 minutes' incubation, 100 nM of capsaicin are added and the influx of Ca^2+ is likewise determined.
The percentage inhibition in comparison with the maximum achievable inhibition with 10 μM capsaicin is calculated.
On the basis of the percentage displacement by different concentrations of the compounds to be tested of the general formula I, IC50 inhibition concentrations which bring about 50% displacement of capsaicin were calculated. Ki values for the test substances were obtained by conversion using the Cheng-Prusoff equation (Cheng, Prusoff; Biochem. Pharmacol. 22, 3099-3108, 1973).

[2] = target: VR1/TRPV1 receptor (Homo sapiens, UniProt Q8NER1); experiment: Inhibition of human VR1/TRPV1 following pH-stimulus; format: cell-based; conditions: for IC50 (Human) following pH-stimulus: ne = no effect, no response observed; for inhibition at 5 µM: read-out: IC50 (Human) following pH-stimulus: inhibition (in percent) @ 5 μM; for inhibition at 10 µM: compound 10 μM, read-out: IC50 (Human) following pH-stimulus: inhibition (in percent) @ 10 μM; for inhibition at 1 µM: compound 1 μM, read-out: IC50 (Human) following pH-stimulus: inhibition (in percent) @ 1 μM
VR1/TRPV1 receptor, sequence (Q8NER1 whole entry): as above

SMILES	Ki [1] [nM]	IC50 (Human) following pH-stimulus [2]	inhibition at 5 µM ([2]; compound 5 μM) [%]	inhibition at 0.1 µM [1] [%]	further results
CC(C(=O)NCc1ccc(C(C)(C)C)cc1)c1ccc2c(c1)OCCO2 (stereo not shown) [Example 9, N-(4-tert.-butyl-benzyl)-2-(2,3-dihydro-benzo[1,4]dioxin-6-yl)-propionamide]	1080	Ne			
COc1cc(C(C)C(=O)NCc2ccc(C(C)(C)C)cc2)cc2ncoc12 (stereo not shown) [Example 7, N-(4-tert.-butyl-benzyl)-2-(7-methoxy-benzooxazolyl-5-yl)-propionamide]	2170	Ne			
CC1CCN(c2nc(C(F)(F)F)ccc2CNC(=O)C(C)c2ccc3nc(N)sc3c2)CC1 (stereo not shown) [Example 38, 2-(2-aminobenzo[d]thiazol-6-yl)-N-((2-(4-methylpiperidin-1-yl)-6-(trifluoromethyl)pyridin-3-yl)methyl)propanamide]	28.4	Ne			
CSc1nc2ccc(C(C)C(=O)NCc3ccc(C(C)(C)C)nc3N3CCC(C)CC3)cc2s1 (stereo not shown) [Example 34, N-(6′-tert.-butyl-4-methyl-3,4,5,6-tetrahydro-2H-[1,2′]bipyridinyl-3′-ylmethyl)-2-(2-methylsulfanyl-benzothiazol-6-yl)-propionamide]		Ne			inhibition at 5 µM [1]: 38%
CC(C(=O)NCc1ccc(C(C)(C)C)cc1)c1ccc2[nH]cnc2c1 (stereo not shown) [Example 14, 2-(1H-benzoimidazol-5-yl)-N-(4-tert.-butyl-benzyl)-propionamide]					Ki (human) Capsaicin [1]: ne
CC(C(=O)NCc1ccc(C(C)(C)C)cc1)c1ccc2nccnc2c1 (stereo not shown) [Example 11, N-(4-tert.-butyl-benzyl)-2-quinoxalin-6-yl-propionamide]					Ki (human) Capsaicin [1]: ne
CC1CCN(c2nc(C(F)(F)F)ccc2CNC(=O)C(C)c2ccc3nc(NS(C)(=O)=O)sc3c2)CC1 (stereo not shown) [Example 39, N-((2-(4-methylpiperidin-1-yl)-6-(trifluoromethyl)pyridin-3-yl)methyl)-2-(2-(methylsulfonamido)benzo[d]thiazol-6-yl)propanamide]		Ne		0	
CC(=O)Nc1nc2ccc(C(C)C(=O)NCc3ccc(C(F)(F)F)nc3N3CCC(C)CC3)cc2s1 (stereo not shown) [Example 41, 2-(2-acetamidobenzo[d]thiazol-6-yl)-N-((2-(4-methylpiperidin-1-yl)-6-(trifluoromethyl)pyridin-3-yl)methyl)propanamide]		Ne		5	
CC(C(=O)NCc1ccc(C(C)(C)C)cc1)c1ccc2ocnc2c1 (stereo not shown) [Example 1, 2-benzooxazol-5-yl-N-(4-tert.-butyl-benzyl)-propionamide]	579	Ne			
CC(C(=O)NCc1ccc(C(C)(C)C)cc1)c1ccc2c(c1)OCCN2 (stereo not shown) [Example 20, N-(4-tert.-butylbenzyl)-2-(3,4-dihydro-2H-benzo[b][1,4]oxazin-7-yl)propionamide]		Ne			inhibition at 5 µM [1]: 9%
CC1CCN(c2nc(C(F)(F)F)ccc2CNC(=O)C(C)c2ccc3nc(NC(=O)OC(C)(C)C)sc3c2)CC1 (stereo not shown) [Example 40, tert.-butyl 6-(1-((2-(4-methylpiperidin-1-yl)-6-(trifluoromethyl)pyridin-3-yl)methylamino)-1-oxopropan-2-yl)benzo[d]thiazol-2-ylcarbamate]			21	0	inhibition at 5 µM [1]: 34%; inhibition at 1 µM [2]: 0%; inhibition at 10 µM [2]: 37%

Second part, led by results:

Ki [1] [nM]	IC50 (Human) following pH-stimulus [2]	inhibition at 5 µM ([2]; compound 5 μM) [%]	inhibition at 0.1 µM [1] [%]	SMILES	further results
32.8		3		CC(C(=O)NCc1ccc(C(C)(C)C)cc1)c1ccc2nc(NS(C)(=O)=O)sc2c1 (stereo not shown) [Example 57, N-(4-tert-butylbenzyl)-2-(2-(methylsulfonamid)benzo[d]thiazol-6-yl)propanamide]	inhibition at 10 µM [2]: 32%
18.7		2		CC1CCN(c2nc(C(C)(C)C)ccc2CNC(=O)C(C)c2ccc3nc(N)sc3c2)CC1 (stereo not shown) [Example 56, 2-(2-aminobenzo[d]thiazol-6-yl)-N-((6-tert-butyl-2-(4-methylpiperidin-1-yl)pyridin-3-yl)methyl)propanamide]	inhibition at 10 µM [2]: 12%
	Ne		5	CC1CCN(c2nc(C(F)(F)F)ccc2CNC(=O)C(C)c2ccc3nc(N)sc3c2)CC1 (stereo not shown) [Example 52, 2-(2-aminobenzo[d]thiazol-6-yl)-N-((2-(4-methylpiperidin-1-yl)-6-(trifluoromethyl)pyridin-3-yl)methyl)propanamide]	
		39	3	CC(C(=O)NCc1ccc(C(C)(C)C)cc1)c1ccc2nc(N)sc2c1 (stereo not shown) [Example 51, 2-(2-aminobenzo[d]thiazol-6-yl)-N-(4-tert.-butylbenzyl)propanamide]	inhibition at 0.1 µM ([2]; compound 0.1 μM, read-out: IC50 (Human) following pH-stimulus: inhibition (in percent) @ 0.1 μM): 10%; IC50 (Human) following pH-stimulus: inhibition (in percent) @ 5 μM ([2]; compound 5 μM, 5 µM): 27% @ 5
		25	0	CC(C(=O)NCc1ccc(C(C)(C)C)cc1)c1ccc2nc(NC(=O)OC(C)(C)C)sc2c1 (stereo not shown) [Example 50, tert.-butyl 6-(1-(4-tert.-butylbenzylamino)-1-oxopropan-2-yl)benzo[d]thiazol-2-ylcarbamate]	inhibition at 5 µM [1]: 10%; inhibition at 1 µM [2]: 10%; inhibition at 10 µM [2]: 53%
		27		CC1CCN(c2nc(C(C)(C)C)ccc2CNC(=O)C(C)c2ccc3nc(NC(=O)OC(C)(C)C)sc3c2)CC1 (stereo not shown) [Example 55, tert-butyl 6-(1-((6-tert-butyl-2-(4-methylpiperidin-1-yl)pyridin-3-yl)methylamino)-1-oxopropan-2-yl)benzo[d]thiazol-2-ylcarbamate]	inhibition at 5 µM [1]: 12%; inhibition at 1 µM [2]: 5%
